Laboratory results as given in US20260347373A1, “HETEROCYCLIC COMPOUNDS, COMPOSITIONS THEREOF, AND METHODS OF TREATMENT THEREWITH” (BeOne Medicines I GmbH, priority 2023, published 2026).
Like-named read-outs stand apart in the source and are kept apart here.

Columns and labels:
WT KRAS = WT KRAS (Homo sapiens, UniProt P01116); assay: KRAS WT Probe Displacement Assay (TR-FRET, GDP-loaded); type: binding
Description: (§1) The synthetic routes of probe 1 and 2, which have been disclosed in PCT/CN2022/070676, are hereby incorporated herein.

KRAS G12D = KRAS G12D (Homo sapiens, UniProt P01116, G12D); assay: KRAS G12D Probe Displacement Assay (TR-FRET, GDP-loaded); type: binding
KRAS G12D, sequence (P01116 1-188 isoform P01116-2 G12D): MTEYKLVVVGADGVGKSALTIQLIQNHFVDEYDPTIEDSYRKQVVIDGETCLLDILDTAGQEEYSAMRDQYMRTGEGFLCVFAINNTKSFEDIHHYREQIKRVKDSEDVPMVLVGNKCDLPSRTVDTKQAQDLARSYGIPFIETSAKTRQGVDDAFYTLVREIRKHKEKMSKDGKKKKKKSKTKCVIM
Description: as §1

[1] = KRAS WT, read-out: KRAS^WT Probe Displacement Assay IC50
[2] = KRAS G12D, read-out: KRAS^G12D Probe Displacement Assay IC50

WT KRAS, sequence (P01116 1-188 isoform P01116-2): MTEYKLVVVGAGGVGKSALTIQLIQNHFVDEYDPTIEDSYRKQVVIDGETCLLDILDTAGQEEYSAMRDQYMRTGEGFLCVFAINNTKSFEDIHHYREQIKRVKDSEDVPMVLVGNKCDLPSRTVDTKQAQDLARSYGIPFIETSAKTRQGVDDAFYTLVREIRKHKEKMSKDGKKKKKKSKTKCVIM

## CN(C)CC1(COc2nc3c4c(nc(-c5cc(N)cc(Cl)c5C(F)(F)F)c(F)c4n2)OCC[C@@H]2[C@@H]4CC[C@H](CN32)N4)CC1(F)F (mixture of isomers) [Example 18, 3-chloro-5-((6aR,7S,10R)-13-((1-((dimethylamino)methyl)-2,2-difluorocyclopropyl)methoxy)-1-fluoro-5,6,6a,7,8,9,10,11-octahydro-4-oxa-3,11a,12,14,15-pentaaza-7,10-methanocyclohepta[4,5]cycloocta [1,2,3-de]naphthalen-2-yl)-4-(trifluoromethyl)aniline]
WT KRAS; [1]
  IC50: 3 to 1000 nM
KRAS G12D; [2]
  IC50: < 0.3 nM

## C=CCN1CCC[C@H]1[C@H](C)Oc1nc2c3c(nc(-c4cc(N)cc(C)c4C(F)(F)F)c(F)c3n1)OCC[C@@H]1[C@@H]3CC[C@H](CN21)N3 [Example 231, 3-((6aR,7S,10R)-13-((S)-1-((S)-1-allylpyrrolidin-2-yl)ethoxy)-1-fluoro-5,6,6a,7,8,9,10,11-octahydro-4-oxa-3,11a,12,14,15-pentaaza-7,10-methanocyclohepta[4,5]cycloocta[1,2,3-de]naphthalen-2-yl)-5-methyl-4-(trifluoromethyl)aniline]
WT KRAS; [1]
  IC50: 3 to 1000 nM
KRAS G12D; [2]
  IC50: < 0.3 nM

## C=C1CN2C[C@H](F)C[C@]2(COc2nc3c4c(nc(-c5cc(N)cc(Cl)c5C(F)(F)F)c(F)c4n2)OCC[C@@H]2[C@@H]4CC[C@H](CN32)N4)C1 [Example 211, 3-chloro-5-((6aR,7aS,10R)-1-fluoro-13-(((2R,7aS)-2-fluoro-6-methylenetetrahydro-1H-pyrrolizin-7a(5H)-yl)methoxy)-5,6,6a,7,8,9,10,11-octahydro-4-oxa-3,11a,12,14,15-pentaaza-7,10-methanocyclohepta[4,5]cycloocta[1,2,3-de]naphthalen-2-yl)-4-(trifluoromethyl)aniline]
WT KRAS; [1]
  IC50: 3 to 1000 nM
KRAS G12D; [2]
  IC50: < 0.3 nM

## Cc1cc(N)cc(-c2nc3c4c(nc(O[C@@H](C)[C@@H]5CCCN5CC5CC5)nc4c2F)N2C[C@H]4CC[C@H](N4)[C@H]2CCO3)c1C(F)(F)F [Example 230, 3-((6aR,7S,10R)-13-((S)-1-((S)-1-(cyclopropylmethyl)pyrrolidin-2-yl)ethoxy)-1-fluoro-5,6,6a,7,8,9,10,11-octahydro-4-oxa-3,11a,12,14,15-pentaaza-7,10-methanocyclohepta[4,5]cycloocta[1,2,3-de]naphthalen-2-yl)-5-methyl-4-(trifluoromethyl)aniline]
WT KRAS; [1]
  IC50: 3 to 1000 nM
KRAS G12D; [2]
  IC50: < 0.3 nM

## Cc1cc(N)cc(-c2nc3c4c(nc(OCC5(CN6CCC(C)(O)CC6)CC5)nc4c2F)N2C[C@H]4CC[C@H](N4)[C@H]2CCO3)c1C(F)(F)F [Example 115, 1-((1-((((6aR,7S, 10R)-2-(5-amino-3-methyl-2-(trifluoromethyl)phenyl)-1-fluoro-5,6,6a,7,8,9,10,11-octahydro-4-oxa-3, 11a,12,14,15-pentaaza-7,10-methanocyclohepta [4,5]cycloocta[1,2,3-de]naphthalen-13-yl)oxy)methyl)cyclopropyl)methyl)-4-methylpiperidin-4-ol]
WT KRAS; [1]
  IC50: 0.3 to 3 nM
KRAS G12D; [2]
  IC50: < 0.3 nM

## Cc1cc(N)cc(-c2nc3c4c(nc(OCC5(CN6CCC(C(F)(F)F)CC6)CC5)nc4c2F)N2C[C@H]4CC[C@H](N4)[C@H]2CCO3)c1C(F)(F)F [Example 113, 3-((6aR,7S,10R)-1-fluoro-13-((1-((4-(trifluoromethyl)piperidin-1-yl)methyl)cyclopropyl)methoxy)-5,6,6a,7,8,9,10,11-octahydro-4-oxa-3,11a,12,14,15-pentaaza-7,10-methanocyclohepta [4,5]cycloocta [1,2,3-de]naphthalen-2-yl)-5-methyl-4-(trifluoromethyl) aniline]
WT KRAS; KRAS^WT Probe Displacement Assay IC50, KRAS WT
  IC50: 0.3 to 3 nM
KRAS G12D; KRAS^G12D Probe Displacement Assay IC50, KRAS G12D
  IC50: < 0.3 nM

## Cc1cc(N)cc(-c2nc3c4c(nc(OCC5(CN6CCC7(CC6)COC7)CC5)nc4c2F)N2C[C@H]4CC[C@H](N4)[C@H]2CCO3)c1C(F)(F)F [Example 102, 3-((6aR,7S,10R)-13-((1-((2-oxa-7-azaspiro[3.5]nonan-7-yl)methyl)cyclopropyl)methoxy)-1-fluoro-5,6,6a,7,8,9,10,11-octahydro-4-oxa-3,11a,12,14,15-pentaaza[7,10]methanocyclohepta [4,5]cycloocta [1,2,3-de]naphthalen-2-yl)-5-methyl-4-(trifluoromethyl)aniline]
WT KRAS; [1]
  IC50: 0.3 to 3 nM
KRAS G12D; [2]
  IC50: < 0.3 nM

## Cc1cc(N)cc(-c2nc3c4c(nc(OC[C@@]56C[C@@H](F)CN5C[C@@]5(CC5(F)F)C6)nc4c2F)N2C[C@H]4CC[C@H](N4)[C@H]2CCO3)c1C(F)(F)F [Example 199, 3-((6aR,7S,10R)-1-fluoro-13-(((1S,6′R,7a′R)-2,2,6′-trifluorodihydro-1′H,3′H-spiro[cyclopropane-1,2′-pyrrolizin]-7a′(5′H)-yl)methoxy)-5,6,6a,7,8,9,10,11-octahydro-4-oxa-3,11a,12,14,15-pentaaza[7,10]methanocyclohepta[4,5]cycloocta[1,2,3-de]naphthalen-2-yl)-5-methyl-4-(trifluoromethyl)aniline]
WT KRAS; [1]
  IC50: 0.3 to 3 nM
KRAS G12D; [2]
  IC50: < 0.3 nM

## Cc1cc(N)cc(-c2nc3c4c(nc(OCC5(CN6CC=C[C@H]6C)CC5)nc4c2F)N2C[C@H]4CC[C@H](N4)[C@H]2CCO3)c1C(F)(F)F [Example 160, 3-((6aR,7S,10R)-1-fluoro-13-((1-(((R)-2-methyl-2,5-dihydro-1H-pyrrol-1-yl)methyl)cyclopropyl)methoxy)-5,6,6a,7,8,9,10,11-octahydro-4-oxa-3,11a,12,14,15-pentaaza-7,10-methanocyclohepta[4,5]cycloocta[1,2,3-de]naphthalen-2-yl)-5-methyl-4-(trifluoromethyl)aniline]
WT KRAS; [1]
  IC50: 3 to 1000 nM
KRAS G12D; [2]
  IC50: < 0.3 nM

## Cc1cc(N)cc(-c2nc3c4c(nc(OCC5(CN6CCOCC6)CC5)nc4c2F)N2C[C@H]4CC[C@H](N4)[C@H]2CCO3)c1C(F)(F)F [Example 67, 3-((6aR,7S,10R)-1-fluoro-13-((1-(morpholinomethyl)cyclopropyl)methoxy)-5,6,6a,7,8,9,10,11-octahydro-4-oxa-3,11a,12,14,15-pentaaza-7,10-methanocyclohepta[4,5]cycloocta [1,2,3-de]naphthalen-2-yl)-5-methyl-4-(trifluoromethyl)aniline]
WT KRAS; [1]
  IC50: 3 to 1000 nM
KRAS G12D; [2]
  IC50: < 0.3 nM

## Cc1cc(N)cc(-c2nc3c4c(nc(OCC5(CN6CC(F)C6)CC5)nc4c2F)N2C[C@H]4CC[C@H](N4)[C@H]2CCO3)c1C(F)(F)F [Example 69, 3-((6aR,7S,10R)-1-fluoro-13-((1-((3-fluoroazetidin-1-yl)methyl)cyclopropyl)methoxy)-5,6,6a,7,8,9,10,11-octahydro-4-oxa-3,11a,12,14,15-pentaaza-7,10-methanocyclohepta[4,5]cycloocta [1,2,3-de]naphthalen-2-yl)-5-methyl-4-(trifluoromethyl)aniline]
WT KRAS; [1]
  IC50: 3 to 1000 nM
KRAS G12D; [2]
  IC50: < 0.3 nM

## Cc1cc(N)cc(-c2nc3c4c(nc(OCC5(CN6CC(F)(F)C6)CC5)nc4c2F)N2C[C@H]4CC[C@H](N4)[C@H]2CCO3)c1C(F)(F)F [Example 82, 3-((6aR,7S,10R)-13-((1-((3,3-difluoroazetidin-1-yl)methyl)cyclopropyl)methoxy)-1-fluoro-5,6,6a,7,8,9,10,11-octahydro-4-oxa-3,11a,12,14,15-pentaaza-7,10-methanocyclohepta [4,5]cycloocta [1,2,3-de]naphthalen-2-yl)-5-methyl-4-(trifluoromethyl)aniline]
WT KRAS; [1]
  IC50: 3 to 1000 nM
KRAS G12D; [2]
  IC50: 0.3 to 3 nM

## Nc1cc(Cl)c(C(F)(F)F)c(-c2nc3c4c(nc(OCC5(CN6CCC(=C(F)F)C6)CC5)nc4c2F)N2C[C@H]4CC[C@H](N4)[C@H]2CCO3)c1 [Example 151, 3-chloro-5-((6aR,7S,10R)-13-((1-((3-(difluoromethylene)pyrrolidin-1-yl)methyl)cyclopropyl)methoxy)-1-fluoro-5,6,6a,7,8,9,10,11-octahydro-4-oxa-3,11a,12,14,15-pentaaza-7,10-methano-cyclohepta[4,5]cycloocta [1,2,3-de]naphthalen-2-yl)-4-(trifluoromethyl)aniline]
WT KRAS; [1]
  IC50: 3 to 1000 nM
KRAS G12D; [2]
  IC50: < 0.3 nM

## [2H]C([2H])([2H])N1CCC(C(F)F)C(C)(C([2H])([2H])Oc2nc3c4c(nc(-c5cc(N)cc(C)c5C(F)(F)F)c(F)c4n2)OCC[C@@H]2[C@@H]4CC[C@H](CN32)N4)C1 (single isomer, unassigned) [Example 241]
WT KRAS; [1]
  IC50: 0.3 to 3 nM
KRAS G12D; [2]
  IC50: < 0.3 nM

## Cc1cc(N)cc(-c2nc3c4c(nc(OCC5(CN6CCN(C7CC7)CC6)CC5)nc4c2F)N2C[C@H]4CC[C@H](N4)[C@H]2CCO3)c1C(F)(F)F [Example 192, 3-((6aR,7S,10R)-13-((1-((4-cyclopropylpiperazin-1-yl)methyl)cyclopropyl)methoxy)-1-fluoro-5,6,6a,7,8,9,10,11-octahydro-4-oxa-3,11a,12,14,15-pentaaza-7,10-methanocyclohepta[4,5]cycloocta[1,2,3-de]naphthalen-2-yl)-5-methyl-4-(trifluoromethyl)aniline]
WT KRAS; [1]
  IC50: 0.3 to 3 nM
KRAS G12D; [2]
  IC50: < 0.3 nM

## CO[C@@H]1CCN(CC2(COc3nc4c5c(nc(-c6cc(N)cc(C)c6C(F)(F)F)c(F)c5n3)OCC[C@@H]3[C@@H]5CC[C@H](CN43)N5)CC2)C[C@@H]1F [Example 184, 3-((6aR,7S,10R)-1-fluoro-13-((1-(((3S,4R)-3-fluoro-4-methoxypiperidin-1-yl)methyl)cyclopropyl)methoxy)-5,6,6a,7,8,9,10,11-octahydro-4-oxa-3,11a,12,14,15-pentaaza-7,10-methanocyclohepta[4,5]cycloocta[1,2,3-de]naphthalen-2-yl)-5-methyl-4-(trifluoromethyl)aniline]
WT KRAS; [1]
  IC50: 3 to 1000 nM
KRAS G12D; [2]
  IC50: < 0.3 nM

## Cc1cc(N)cc(-c2nc3c4c(nc(OC[C@]56C[C@H](F)CN5C[C@H](F)C6)nc4c2F)N2C[C@H]4CC[C@H](N4)[C@H]2CCO3)c1C(F)(F)F [Example 35]
WT KRAS; [1]
  IC50: 3 to 1000 nM
KRAS G12D; [2]
  IC50: 0.3 to 3 nM
